The test system of assay [1] is Candida albicans. Description: microbe, parasite or virus in culture. Conditions: MTCC 3017, 24 h.
Description: Antimicrobial activity against Candida albicans MTCC 3017 after 24 hrs by well diffusion method
Assay [2] has as its system Mycobacterium tuberculosis. Briefly: Ratio of linezolid MIC to compound MIC for Mycobacterium tuberculosis H37Rv after 3 weeks by broth dilution method. The class given is functional. Background: In broth dilution the organism is exposed to a series of concentrations in liquid medium.
The subject of assay [3] is Raoultella planticola. Briefly: Antimicrobial activity against Klebsiella planticola MTCC 530 after 24 hrs by well diffusion method. In kind it is functional. As to conditions: MTCC 530, 24 h. For orientation: A growth-free zone around the sample is the usual read-out of agar diffusion tests.
Assay [4] concerns Pseudomonas aeruginosa. Description: Antimicrobial activity against Pseudomonas aeruginosa MTCC 2453 after 24 hrs by well diffusion method. The class given is functional. As to conditions: MTCC 2453, 24 h.
Assay [5] deals with Escherichia coli. Description: Antimicrobial activity against Escherichia coli MTCC 739 after 24 hrs by well diffusion method. In kind it is functional. As to conditions: MTCC 739, 24 h.
Assay [6] relates to Bacillus subtilis. Briefly: Antimicrobial activity against Bacillus subtilis MTCC 121 after 24 hrs by well diffusion method. As to conditions: MTCC 121, 24 h. In kind it is functional.
The subject of assay [7] is Staphylococcus aureus. Briefly: Antimicrobial activity against Staphylococcus aureus MLS-16 MTCC 2940 after 24 hrs by well diffusion method. As to conditions: MLS-16 MTCC 2940, 24 h. The class given is functional.
Assay [8] relates to Micrococcus luteus. Description: Antimicrobial activity against Micrococcus luteus MTCC 2470 after 24 hrs by well diffusion method. The class given is functional. Conditions: MTCC 2470, 24 h.
The test system of assay [9] is Staphylococcus aureus. Description: Antimicrobial activity against Staphylococcus aureus MTCC 96 after 24 hrs by well diffusion method. Conditions: MTCC 96, 24 h. In kind it is functional.
The subject of another assay is Vero. Briefly: Cytotoxicity against african green monkey Vero cells. The class given is cell-based. As to conditions: Chlorocebus sabaeus.
Another assay deals with MRC5. Description: Cytotoxicity against human MRC5 cells. The class given is cell-based.
For assay [10], the system named is Mycobacterium tuberculosis. Description: Antimicrobial activity against Mycobacterium tuberculosis H37Rv after 3 weeks by broth dilution method. In kind it is functional. As to conditions: 504 h.
The subject of assay [11] is Raoultella planticola. Description: Antibiofilm activity against Klebsiella planticola MTCC 530 after 24 hrs by crystal violet assay. The class given is functional, organism-based. Conditions: MTCC 530, 24 h.
Assay [12] deals with Staphylococcus aureus. Description: Antibiofilm activity against Staphylococcus aureus MLS-16 MTCC 2940 after 24 hrs by crystal violet assay. The class given is functional, organism-based. As to conditions: MLS-16 MTCC 2940, 24 h.
In assay [13] the test system is Staphylococcus aureus. Description: Antibiofilm activity against Staphylococcus aureus MTCC 96 after 24 hrs by crystal violet assay. In kind it is functional, organism-based. As to conditions: MTCC 96, 24 h.
Assay [14] has as its system Staphylococcus aureus. Description: Antimicrobial activity against methicillin-resistant Staphylococcus aureus after 24 hrs by microdilution method. The class given is functional.
The test system of assay [15] is Candida albicans. Briefly: Antimicrobial activity against Candida albicans MTCC 3017 at 150 ug/ml after 24 hrs by well diffusion method. The class given is functional, organism-based.
Assay [16] deals with Raoultella planticola. Description: Bactericidal activity against Klebsiella planticola MTCC 530 after 24 hrs. In kind it is functional. As to conditions: MTCC 530, 24 h.
The test system of assay [17] is Pseudomonas aeruginosa. Description: Bactericidal activity against Pseudomonas aeruginosa MTCC 2453 after 24 hrs. The class given is functional. Conditions: MTCC 2453, 24 h.
Assay [18] concerns Escherichia coli. Description: Bactericidal activity against Escherichia coli MTCC 739 after 24 hrs. The class given is functional. As to conditions: MTCC 739, 24 h.
Assay [19] has as its system Bacillus subtilis. Description: Bactericidal activity against Bacillus subtilis MTCC 121 after 24 hrs. The class given is functional. As to conditions: MTCC 121, 24 h.
The test system of assay [20] is Staphylococcus aureus. Description: Bactericidal activity against Staphylococcus aureus MLS-16 MTCC 2940 after 24 hrs. In kind it is functional. Conditions: MLS-16 MTCC 2940, 24 h.
The subject of assay [21] is Staphylococcus aureus. Briefly: Bactericidal activity against Staphylococcus aureus MTCC 96 after 24 hrs. Conditions: MTCC 96, 24 h. In kind it is functional.
The test system of a further assay is Enterococcus faecalis. Briefly: Antimicrobial activity against vancomycin -resistant Enterococcus faecalis after 24 hrs by microdilution method. The class given is functional.
Assay [22] concerns Micrococcus luteus. Briefly: Bactericidal activity against Micrococcus luteus MTCC 2470 after 24 hrs. The class given is functional. Conditions: MTCC 2470, 24 h.

≈ marks a conversion by molar mass, not a printed value. Calls of active or inactive are those of the source. The calls are words filed in the database; no cut-off is given here.

Regarding `Clc1ccc(COC(Cn2ccnc2)c2ccc(Cl)cc2Cl)c(Cl)c1` (stereo not drawn) [MICONAZOLE], the MIC with Candida albicans [1] was determined as 9.37 µg/mL (≈ 22.5 µM).

As to `O=C(NCc1cn(Cc2ccc(F)c(Cl)c2)nn1)c1ccc([N+](=O)[O-])o1`, in assay [2], the Ratio is 4. Also, the MIC in the assay with Raoultella planticola [3] is 18.8 µg/mL (≈ 49.4 µM); in the assay on Pseudomonas aeruginosa [4], more than 150 µg/mL; with Escherichia coli [5] it was 18.8 µg/mL (≈ 49.4 µM); against Bacillus subtilis [6], 1.17 µg/mL (≈ 3.08 µM); in the assay on Staphylococcus aureus [7] it was 2.34 µg/mL (≈ 6.16 µM); against Micrococcus luteus [8], 2.34 µg/mL (≈ 6.16 µM). Moreover, the MIC against Staphylococcus aureus [9] is 18.8 µg/mL (≈ 49.4 µM); in [10], 0.25 µg/mL (≈ 0.658 µM); against Staphylococcus aureus [14], 8 µg/mL (≈ 21.1 µM); in the assay on Enterococcus faecalis, more than 64 µg/mL. The half-inhibitory concentration (IC50) with Vero turned out to be 344 µM; in the assay on MRC5, 254 µM; with Raoultella planticola [11] it was 12.2 µg/mL (≈ 32.1 µM); with Staphylococcus aureus [12], 1.1 µg/mL (≈ 2.9 µM); in the assay on Staphylococcus aureus [13] it was 13.6 µg/mL (≈ 35.8 µM). Also, the result with Candida albicans [15] was inactive. Further, the MBC in the assay on Raoultella planticola [16] is 37.5 µg/mL (≈ 98.8 µM); against Pseudomonas aeruginosa [17], more than 150 µg/mL; with Escherichia coli [18], 18.8 µg/mL (≈ 49.4 µM); in the assay on Bacillus subtilis [19] it was 1.17 µg/mL (≈ 3.08 µM); against Staphylococcus aureus [20], 2.34 µg/mL (≈ 6.16 µM); in the assay on Staphylococcus aureus [21] it was 18.8 µg/mL (≈ 49.4 µM). For the same compound, in the assay on Micrococcus luteus [22], the minimum bactericidal concentration (MBC) came out at 2.34 µg/mL (≈ 6.16 µM).

Turning to `COc1ccc(Cn2cc(CNC(=O)c3ccc([N+](=O)[O-])o3)nn2)cc1[N+](=O)[O-]`, the MIC against Raoultella planticola [3] was 9.37 µg/mL (≈ 23.3 µM); against Pseudomonas aeruginosa [4], more than 150 µg/mL; in the assay with Escherichia coli [5], 18.8 µg/mL (≈ 46.6 µM); against Bacillus subtilis [6] it was 2.34 µg/mL (≈ 5.82 µM); in the assay with Staphylococcus aureus [7] it was 4.68 µg/mL (≈ 11.6 µM); in the assay with Micrococcus luteus [8] it was 4.68 µg/mL (≈ 11.6 µM). The MIC was more than 150 µg/mL against Staphylococcus aureus [9], 16 µg/mL (≈ 39.8 µM) in assay [10], 8 µg/mL (≈ 19.9 µM) with Staphylococcus aureus [14] and more than 64 µg/mL in the assay with Enterococcus faecalis. Further, the IC50 with Vero was determined as 176 µM; in the assay with MRC5 it was 198 µM; with Raoultella planticola [11] it was 6.1 µg/mL (≈ 15.2 µM); with Staphylococcus aureus [12], 4.1 µg/mL (≈ 10.2 µM); in the assay with Staphylococcus aureus [13], 91.2 µg/mL (≈ 227 µM). The outcome in the assay with Candida albicans [15] was inactive. Also, the MBC in the assay with Raoultella planticola [16] is 18.8 µg/mL (≈ 46.6 µM); against Pseudomonas aeruginosa [17], more than 150 µg/mL; against Escherichia coli [18] it was 18.8 µg/mL (≈ 46.6 µM); against Bacillus subtilis [19], 2.34 µg/mL (≈ 5.82 µM); in the assay on Staphylococcus aureus [20], 4.68 µg/mL (≈ 11.6 µM); against Staphylococcus aureus [21], more than 150 µg/mL. The same compound displayed a minimal bactericidal concentration (MBC) against Micrococcus luteus [22] of 9.37 µg/mL (≈ 23.3 µM).

As a reminder, the IC50 is the point on the concentration scale where inhibition reaches its midpoint. One may read the MBC as the lowest tested concentration that kills the bacteria rather than only halting them.

Source of the values: ChEMBL document CHEMBL3091424, “Anti-tubercular agents. Part 8: synthesis, antibacterial and antitubercular activity of 5-nitrofuran based 1,2,3-triazoles” (Bioorg Med Chem Lett, 2013).
